Measured values: paper PMC3976407, “Inhibition of Fatty Acid Binding Proteins Elevates Brain Anandamide Levels and Produces Analgesia” (PLoS ONE, 2014)

Key:
[1] = system: HeLa cells; experiment: Cytotoxicity, MTT colorimetric assay; assay type: cell-based; conditions: 24 hr incubation, n = 3
Method: Cytotoxicity of the FABP inhibitors SBFI26 and BMS309403 were examined using the MTT [3-(4,5-dimethylthiazol-2-yl)-2,5 diphenyl tetrazolium bromide] colorimetric assay. HeLa cells were seeded into 96-well plates (15,000 cells/well) and incubated for 24 hours at 37°C in DMEM supplemented with 10% FBS, penicillin (100 U/mL) and streptomycin (100 μg/mL). The cells were subsequently washed with PBS and treated with serum-free DMEM containing 10 nM to 1 mM SBFI26, BMS309403, or 5 mM hydrogen peroxide as a positive control. Following a 24 hr incubation, the cells were washed with PBS and treated with MTT (0.5 mg/mL in PBS) for 4 hrs. The cells were subsequently solubilized using DMSO and the absorbance was read at 562 nm in a microplate reader.

[2] = biological target: T1, FABP5 (Homo sapiens, UniProt Q01469); parameters: method as in PMID 22170058; conditions: determined previously ref 9; cited from earlier work
[3] = biological target: T2, FABP3 (Homo sapiens, UniProt P05413); parameters: method as in PMID 22170058; conditions: determined previously ref 9; cited from earlier work
[4] = biological target: T3, FABP7 (Homo sapiens, UniProt O15540); parameters: method as in PMID 22170058; conditions: determined previously ref 9; cited from earlier work
[5] = system: acetic acid-induced writhing in mice; experiment: Acetic acid-induced writhing; assay type: in vivo, mouse; conditions: for Effect upon acetic acid-induced writhing: 20 mg/kg, subcutaneous, 60 min before acetic acid
Method: Mice were acclimated to the laboratory environment for at least two hours and were habituated to the testing chamber for 30 min prior to acetic acid challenge. SBFI26, SBFI50, SBFI60, and SBFI62 (20 mg/kg) were administered via the subcutaneous route 60 min before acetic acid. Rimonabant, SR144528, GW6471, and naloxone were given 10 min before the inhibitors via the subcutaneous route. The mice subsequently received an i.p. injection of acetic acid (0.6% in sterile saline, 10 μl/g) and were placed in observation chambers. Abdominal stretches (marked by extension of the body and hind limbs) were counted for 20 min starting at 5 min post-injection.

[6] = biological target: T2, FABP3; experiment: NBD-stearate fluorescence displacement binding
Method: (§1) Inhibitory constant (Ki) values were elucidated utilizing NBD-stearate fluorescence displacement as described previously [9], [31]. The tests were performed in 96-well plates containing inhibitors (0.1 – 50.0 μM), FABP, and NBD-stearate. Fluorescence intensity was measured with a FLUOstar OPTIMA spectrofluorometer with excitation and emission wavelengths of 460 and 544 nm, respectively.

[7] = system: carrageenan-induced thermal hyperalgesia and paw edema in mice; experiment: Carrageenan-induced paw edema and thermal hyperalgesia; assay type: in vivo, mouse; conditions: 20 mg/kg, i.p.
Method: Paw edema was induced by injecting 1% λ-carrageenan (20 μl, in sterile saline) into the plantar surface of the left hind paw using a 30 gauge needle attached to a glass syringe (Hamilton Company). Paw diameters were measured before carrageenan injection and 4 or 24 hours after injection using digital electronic calipers (Fisher) and expressed to the nearest ± 0.01 mm. SBFI26, SBFI50, SBFI60, and SBFI62 were dissolved in DMSO:cremophor-EL:saline (4% DMSO:10% Cremophor-EL) and administered (20 mg/kg, i.p.) 60 min prior to injection of carrageenan. Receptor antagonists were injected 10 min before the inhibitors. Rimonabant and SR144528 (3 mg/kg, i.p.) were dissolved in ethanol:cremophor-EL:saline (1∶1∶18) while GW6471 (4 mg/kg, i.p.) was dissolved in DMSO:cremophor-EL:saline (2% DMSO:5% Cremophor-EL). Edema is reported as the change in paw diameter at 24 hr compared to the baseline. Thermal hyperalgesia was measured using the Hargreaves plantar apparatus (Ugo Basile) as previously reported.

[8] = system: rats subjected to CCI; experiment: Rat neuropathic pain model (chronic constriction injury of the sciatic nerve); assay type: in vivo; conditions: 20 mg/kg i.p.
From the text: Male Fisher 344 rats were habituated and pre-injury evoked responses were obtained. The Hargreaves test was used to assess thermal hyperalgesia. Briefly, plexiglass enclosures were set atop a plexiglass platform and infrared source set at 50% power located under the platform was used as the heat stimulus (Ugo Basile). A 200 mW, 535 nm diode laser was mounted in an adjustable stand placed beneath the plexiglass platform, and was used as an alternative heat stimulus for some of the animals in this study. The latency time to hind paw lift during heating of the plantar surface was recorded. Five recordings were obtained on each hind paw with at least 2 min rest between measurements. The maximum time for exposure to the infrared or diode laser source was 30.5 s to avoid any possible tissue injury. For mechanical threshold measurements, the animal enclosures rested on a screen with mesh of 0.5 cm spacing. Following acclimation, an electronic von Frey Anesthesiometer (IITC Life Sciences) was applied with increasing pressure to the plantar surface of the hind paw until the animals lifted the hind paw. The number of grams of force applied by the probe to induce withdrawal was recorded. Five recordings were obtained on each hind paw with at least 3 min between measurements. For CCI surgeries, our procedure closely followed that reported previously. Briefly, each animal received an i.p. injection of ketamine/xylazine (75 mg/kg and 10 mg/kg, respectively). The hind leg was surgically prepped and the anesthetized animal placed prone on an sterile towel over a heating pad. The temperature was monitored rectally. A skin incision was made mid-thigh with a medium curved scalpel and then scissors were used to expose the sciatic nerve. Approximately 1 cm of the main trunk proximal to the trifuraction was isolated and 4 strands of 4-0 chromic gut were tied around the nerve ∼ 1 mm apart under magnification. In a modification of the original method, a 2-0 prolene strand was placed between the nerve and the gut to which the suture was tightened. The prolene strand was then removed. This prevented over tightening and reduced subsequent motor paralysis. The muscle layers were then reopposed and sutured, and surgical staples were used to close the skin. On post-injury days 7 through 10, heat and mechanical measurements were obained for the ipsilateral hindpaw of each CCI animal. Immediately following the post-injury measurements, animals were randomized and received i.p. injections of vehicle or 20 mg/kg SBI26 (DMSO:cremophor:sterile saline 1∶1∶2 by volume). Up to 0.8 ml of drug or vehicle was injected. The observer was blinded as to administration of drug or vehicle. Thermal and mechanical measurements were performed at 1 and 4 h post-injection. Data were normalized to pre-injury baseline measurements for each animal.

[9] = system: formalin-induced nociception in mice; experiment: Formalin test; assay type: in vivo, mouse; conditions: 20 mg/kg, i.p.; for Effect upon first phase of formalin-induced nociception: first phase 0–5 min
Method: Mice were habituated to the observation chamber (Plexiglas box, 25 cm×25 cm×25 cm) for 30 min prior to formalin injection. Mice were administered FABP inhibitors 60 min prior to formalin. The animals subsequently received an injection of formalin (2.5% in saline, 20 μl) into the plantar surface of the right hind paw using a 30 gauge needle and were immediately placed back into the observation chamber and nocifensive behavior (time spent licking or biting the paw) was recorded for 60 min. Nocifensive behavior was scored during the first phase (0–5 min) and the second phase (∼15–45 min) of the formalin test.

[10] = biological target: T3, FABP7; experiment: NBD-stearate fluorescence displacement binding
Method: as §1

[11] = biological target: T1, FABP5; experiment: NBD-stearate fluorescence displacement binding; conditions: averages ± S.E. of three independent experiments
Method: Inhibitory constant (Ki) values were elucidated utilizing NBD-stearate fluorescence displacement as described previously, [31]. The tests were performed in 96-well plates containing inhibitors (0.1 – 50.0 μM), FABP, and NBD-stearate. Fluorescence intensity was measured with a FLUOstar OPTIMA spectrofluorometer with excitation and emission wavelengths of 460 and 544 nm, respectively.

T2 sequence (P05413 whole entry, species assumed): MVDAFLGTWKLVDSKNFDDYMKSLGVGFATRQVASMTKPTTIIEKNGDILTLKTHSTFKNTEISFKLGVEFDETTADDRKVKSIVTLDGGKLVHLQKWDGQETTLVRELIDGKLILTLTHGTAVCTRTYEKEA
T1 sequence (Q01469 whole entry, species assumed): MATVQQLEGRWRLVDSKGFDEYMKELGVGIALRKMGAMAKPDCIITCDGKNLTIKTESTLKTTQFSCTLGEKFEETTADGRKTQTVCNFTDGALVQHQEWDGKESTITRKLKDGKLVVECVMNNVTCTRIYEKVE
T3 sequence (O15540 whole entry, species assumed): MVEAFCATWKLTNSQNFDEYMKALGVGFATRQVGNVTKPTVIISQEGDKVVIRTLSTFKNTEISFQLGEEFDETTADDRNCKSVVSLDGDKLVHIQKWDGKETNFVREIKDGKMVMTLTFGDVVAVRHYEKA

CCc1c(-c2ccccc2)c(-c2ccccc2)nn1-c1ccccc1-c1cccc(OCC(=O)O)c1 [BMS309403, reference compound]
Cytotoxicity _50 values [1]: 11.3 ± 0.9 µM

CCCCCCC(CCCCCCCCCCC(=O)O)N(C)c1ccc([N+](=O)[O-])c2nonc12 (centres unmarked) [NBD-stearate, 12-N-methyl-(7-nitrobenz-2-oxa-1,3-diazo)aminostearicacid]
Kd [2]: 160 nM
Kd [3]: 180 nM
Kd [4]: 220 nM

O=C(Nc1cccnc1)N1CCC(Cc2cccc(Oc3ccc(C(F)(F)F)cn3)c2)CC1 [PF-3845, reference compound]
Antinociceptive effects in the acetic acid test after pretreatment with CB1 antagonist rimonabant ([5]; rimonabant 3 mg/kg 10 min before inhibitor): blocked

O=C(O)C1C(c2ccccc2)C(C(=O)Oc2ccc3ccccc3c2)C1c1ccccc1 (stereo not drawn) [SBFI50, alpha-2,4-diphenylcyclobutane-1,3-dicarboxylic acid mono-2-naphthyl ester]
Effect upon acetic acid-induced writhing [5]: without effect
Ki [6]: 3.5 ± 0.3 µM
Effect upon carrageenan-induced paw edema [7]: reduced
Effect upon carrageenan-induced thermal hyperalgesia [7]: reduced
Effect on mechanical thresholds in CCI rats ([8]; 1 and 4 h): Neither compound altered
Effect on thermal hyperalgesia in CCI rats ([8]; measured 1 and 4 h post-injection): without effect
Effect upon first phase of formalin-induced nociception [9]: reduced
Ki [10]: 600 ± 100 nM
Ki [11]: 1300 ± 200 nM

O=C(O)C1C(c2ccccc2)C(C(=O)Nc2cccc3ccccc23)C1c1ccccc1 (stereo not drawn) [SBFI60, alpha-2,4-diphenylcyclobutane-1,3-dicarboxylic acid mono-1-naphthyl amide]
Effect upon acetic acid-induced writhing [5]: without effect
Ki [6]: > 10 µM
Effect upon carrageenan-induced paw edema [7]: without effect
Effect upon carrageenan-induced thermal hyperalgesia [7]: without effect
Effect upon first phase of formalin-induced nociception [9]: reduced
Ki [10]: 300 nM
Ki [11]: 1600 nM

O=C(Nc1cccc2ccccc12)C1C(c2ccccc2)C(C(=O)Nc2cccc3ccccc23)C1c1ccccc1 (centres unmarked) [SBFI62, 2,4-diphenylcyclobutane-1,3-dicarboxylic acid di-1-naphthyl amide]
Effect upon acetic acid-induced writhing [5]: without effect
Ki [6]: 2.6 ± 1.1 µM
Effect upon carrageenan-induced paw edema [7]: without effect
Effect upon carrageenan-induced thermal hyperalgesia [7]: without effect
Effect upon first phase of formalin-induced nociception [9]: without effect
Effect upon second phase of formalin-induced nociception ([9]; second phase ∼15–45 min): without effect
Ki [10]: 6100 ± 500 nM
Ki [11]: 3300 ± 700 nM
